# Key:
# [1] = test system: Detoxification protein genes; experiment: DNA chip mRNA expression in yeast, detoxification protein genes (Table 8); assay type: cell-based, Saccharomyces cerevisiae S288C
# Method in brief: (§1)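 Untreated cultures served as reference for log-phase S288C yeast given a growth-inhibiting, non-lethal toxicant dose for 2 h at 25° C. in YPD. Gene expression was measured on a whole-genome DNA chip from Cy3/Cy5-labeled cDNA.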
# [2] = test system: DNA repair protein genes; experiment: DNA chip mRNA expression in yeast, DNA repair protein genes (Table 3); assay type: cell-based, Saccharomyces cerevisiae S288C; details: incubated two hours, concentrations as in the 1st table
# Method in brief: as §1
structure (smiles),measurement,setting,value
"[Cl][Pb][Cl] [(4), PbCl2]",The level of expressed mRNA in the presence of chemical substance/The level of expressed mRNA in the absence of chemical substance,[1]; yeast gene YOR251C,1.8
same,The level of expressed mRNA in the presence of chemical substance/The level of expressed mRNA in the absence of chemical substance,[1]; yeast gene YOR273C,1.0
same,The level of expressed mRNA in the presence of chemical substance/The level of expressed mRNA in the absence of chemical substance,[1]; yeast gene YPL163C,0.9
same,The level of expressed mRNA in the presence of chemical substance/The level of expressed mRNA in the absence of chemical substance,[1]; yeast gene YPR200C,5.0
same,The level of expressed mRNA in the presence of chemical substance/The level of expressed mRNA in the absence of chemical substance,[2]; yeast gene YAL015C,1.9
same,The level of expressed mRNA in the presence of chemical substance/The level of expressed mRNA in the absence of chemical substance,[2]; yeast gene YAR007C,0.5
same,The level of expressed mRNA in the presence of chemical substance/The level of expressed mRNA in the absence of chemical substance,[2]; yeast gene YBL019W,1.2
same,The level of expressed mRNA in the presence of chemical substance/The level of expressed mRNA in the absence of chemical substance,[2]; yeast gene YBR073W,0.7
same,The level of expressed mRNA in the presence of chemical substance/The level of expressed mRNA in the absence of chemical substance,[2]; yeast gene YBR272C,1.0
same,The level of expressed mRNA in the presence of chemical substance/The level of expressed mRNA in the absence of chemical substance,[2]; yeast gene YCR014C,0.6
same,The level of expressed mRNA in the presence of chemical substance/The level of expressed mRNA in the absence of chemical substance,[2]; yeast gene YDL017W,1.3
same,The level of expressed mRNA in the presence of chemical substance/The level of expressed mRNA in the absence of chemical substance,[2]; yeast gene YDL059C,1.7
same,The level of expressed mRNA in the presence of chemical substance/The level of expressed mRNA in the absence of chemical substance,[2]; yeast gene YDL200C,1.8
same,The level of expressed mRNA in the presence of chemical substance/The level of expressed mRNA in the absence of chemical substance,[2]; yeast gene YDR054C,1.4
same,The level of expressed mRNA in the presence of chemical substance/The level of expressed mRNA in the absence of chemical substance,[2]; yeast gene YDR369C,1.1
same,The level of expressed mRNA in the presence of chemical substance/The level of expressed mRNA in the absence of chemical substance,[2]; yeast gene YEL019C,0.7
same,The level of expressed mRNA in the presence of chemical substance/The level of expressed mRNA in the absence of chemical substance,[2]; yeast gene YEL037C,1.0
same,The level of expressed mRNA in the presence of chemical substance/The level of expressed mRNA in the absence of chemical substance,[2]; yeast gene YER162C,1.1
same,The level of expressed mRNA in the presence of chemical substance/The level of expressed mRNA in the absence of chemical substance,[2]; yeast gene YFL014W,11.0
same,The level of expressed mRNA in the presence of chemical substance/The level of expressed mRNA in the absence of chemical substance,[2]; yeast gene YGL058W,0.7
same,The level of expressed mRNA in the presence of chemical substance/The level of expressed mRNA in the absence of chemical substance,[2]; yeast gene YGL091C,1.7
same,The level of expressed mRNA in the presence of chemical substance/The level of expressed mRNA in the absence of chemical substance,[2]; yeast gene YGL127C,1.7
same,The level of expressed mRNA in the presence of chemical substance/The level of expressed mRNA in the absence of chemical substance,[2]; yeast gene YGL163C,4.3
same,The level of expressed mRNA in the presence of chemical substance/The level of expressed mRNA in the absence of chemical substance,[2]; yeast gene YGL249W,0.8
same,The level of expressed mRNA in the presence of chemical substance/The level of expressed mRNA in the absence of chemical substance,[2]; yeast gene YGR180C,1.0
same,The level of expressed mRNA in the presence of chemical substance/The level of expressed mRNA in the absence of chemical substance,[2]; yeast gene YGR231C,1.0
same,The level of expressed mRNA in the presence of chemical substance/The level of expressed mRNA in the absence of chemical substance,[2]; yeast gene YGR258C,0.7
same,The level of expressed mRNA in the presence of chemical substance/The level of expressed mRNA in the absence of chemical substance,[2]; yeast gene YHR164C,0.7
same,The level of expressed mRNA in the presence of chemical substance/The level of expressed mRNA in the absence of chemical substance,[2]; yeast gene YIL036W,1.8
same,The level of expressed mRNA in the presence of chemical substance/The level of expressed mRNA in the absence of chemical substance,[2]; yeast gene YIL072W,2.6
same,The level of expressed mRNA in the presence of chemical substance/The level of expressed mRNA in the absence of chemical substance,[2]; yeast gene YIL143C,0.9
same,The level of expressed mRNA in the presence of chemical substance/The level of expressed mRNA in the absence of chemical substance,[2]; yeast gene YIL153W,2.9
same,The level of expressed mRNA in the presence of chemical substance/The level of expressed mRNA in the absence of chemical substance,[2]; yeast gene YIR002C,0.6
same,The level of expressed mRNA in the presence of chemical substance/The level of expressed mRNA in the absence of chemical substance,[2]; yeast gene YJL026W,1.0
same,The level of expressed mRNA in the presence of chemical substance/The level of expressed mRNA in the absence of chemical substance,[2]; yeast gene YJR046W,1.5
same,The level of expressed mRNA in the presence of chemical substance/The level of expressed mRNA in the absence of chemical substance,[2]; yeast gene YJR052W,1.0
same,The level of expressed mRNA in the presence of chemical substance/The level of expressed mRNA in the absence of chemical substance,[2]; yeast gene YKL145W,1.0
same,The level of expressed mRNA in the presence of chemical substance/The level of expressed mRNA in the absence of chemical substance,[2]; yeast gene YLR103C,0.4
same,The level of expressed mRNA in the presence of chemical substance/The level of expressed mRNA in the absence of chemical substance,[2]; yeast gene YLR233C,2.0
same,The level of expressed mRNA in the presence of chemical substance/The level of expressed mRNA in the absence of chemical substance,[2]; yeast gene YLR288C,1.8
same,The level of expressed mRNA in the presence of chemical substance/The level of expressed mRNA in the absence of chemical substance,[2]; yeast gene YML032C,0.7
same,The level of expressed mRNA in the presence of chemical substance/The level of expressed mRNA in the absence of chemical substance,[2]; yeast gene YML058W,1.9
same,The level of expressed mRNA in the presence of chemical substance/The level of expressed mRNA in the absence of chemical substance,[2]; yeast gene YMR035W,1.7
same,The level of expressed mRNA in the presence of chemical substance/The level of expressed mRNA in the absence of chemical substance,[2]; yeast gene YMR072W,1.0
same,The level of expressed mRNA in the presence of chemical substance/The level of expressed mRNA in the absence of chemical substance,[2]; yeast gene YMR096W,0.8
same,The level of expressed mRNA in the presence of chemical substance/The level of expressed mRNA in the absence of chemical substance,[2]; yeast gene YMR284W,2.0
same,The level of expressed mRNA in the presence of chemical substance/The level of expressed mRNA in the absence of chemical substance,[2]; yeast gene YNL213C,1.5
same,The level of expressed mRNA in the presence of chemical substance/The level of expressed mRNA in the absence of chemical substance,[2]; yeast gene YNL250W,1.2
same,The level of expressed mRNA in the presence of chemical substance/The level of expressed mRNA in the absence of chemical substance,[2]; yeast gene YNL261W,1.3
same,The level of expressed mRNA in the presence of chemical substance/The level of expressed mRNA in the absence of chemical substance,[2]; yeast gene YNL312W,0.7
same,The level of expressed mRNA in the presence of chemical substance/The level of expressed mRNA in the absence of chemical substance,[2]; yeast gene YOL043C,1.7
same,The level of expressed mRNA in the presence of chemical substance/The level of expressed mRNA in the absence of chemical substance,[2]; yeast gene YOR005C,0.8
same,The level of expressed mRNA in the presence of chemical substance/The level of expressed mRNA in the absence of chemical substance,[2]; yeast gene YOR386W,1.5
same,The level of expressed mRNA in the presence of chemical substance/The level of expressed mRNA in the absence of chemical substance,[2]; yeast gene YPL022W,1.2
same,The level of expressed mRNA in the presence of chemical substance/The level of expressed mRNA in the absence of chemical substance,[2]; yeast gene YPL164C,1.0
same,The level of expressed mRNA in the presence of chemical substance/The level of expressed mRNA in the absence of chemical substance,[2]; yeast gene YPL194W,1.1
same,The level of expressed mRNA in the presence of chemical substance/The level of expressed mRNA in the absence of chemical substance,[2]; yeast gene YPR025C,0.6

# From patent publication US8192962B2, “Processes for detecting toxic substances” (Daikin Industries, Ltd., priority 2001, dated 2012)
